Earlier results in US10946011B2 (Martin Pharmaceuticals Inc., priority 2018, dated 2021).

PKa: 6.80
Compound: OCC(CO)(CO)NCCCNC(CO)(CO)CO [BIS-Tris Propane]
